Here are results for one molecule from US9364449B2, “Peptoid and synthetic oligomers, pharmaceutical compositions and methods of using same” (New York University, priority 2011, dated 2016).

One experiment has as its target T1, Aβ1-40 (Homo sapiens, UniProt P05067).
T1 construct: made in house; host or cells: chemical solid-phase peptide synthesis (L-amino acids), RP-HPLC purified
Briefly: Oligomerization assay (glutaraldehyde cross-linking, Western blot, densitometry). Type of experiment: biochemical. The settings on record: 100 μM Aβ1-40 with 10 μM compound (10:1 Aβ:inhibitor), 4° C., 24 h. The method, then: Autoradiography films were converted into 8 bit grayscale digital files using a Epson Perfection 4990 scanner (Epson America; Long Beach, Calif.) and Adobe Photoshop CS4 (Adobe Systems; San Jose, Calif.) and saved in a TIF format with a resolution of 600 dpi. Densitometric analysis of Western and dot-blot signals was performed using NIH Image J software v 1.42 (Bethesda, Md.) as previously described (Pankiewicz et al., 2006. Eur. J. Neurosci. 23, 2635-47; Sadowski et al., 2009. Neurobiol Dis; 34, 267-78).
The rationale is that Aβ oligomeric assemblies are particularly toxic to synaptic components and impair neurotransmission. […] GKLVFNmgA (SEQ ID NO: 310:1 Aβ:inhibitor ratio). Prior to electrophoresis, glutaraldehyde (0.4 mM final concentration) was added to prevent disassembly of complexes. Samples were immediately subjected to electrophoresis in non-reducing condition, Western-transfer, and detection with a mixture of 4G8 and 6E10 anti-Aβ Mabs.

Experiment [1] concerns primary hippocampal neurons. In words: Immunocytochemistry and quantification of synaptic protein expression in neurons exposed to Aβ40. It is filed as cell-based, C57bL/6 mice.
Procedure: P0-P1 pups of C57bL/6 mice were killed by decapitation and brains were removed in aseptic conditions. To establish cultures of primary hippocampal neurons the hippocampi were dissected from both hemispheres under AmScope stereoscopic microscope (AmScope, Chino, Calif.). Fragments of tissue were placed in the ice-cold Ca^2+ and Mg^2+ free Hank's balanced salt solution (HBSS) and gently cut further into fine pieces which were then treated with 0.05% trypsin in HBSS for 10 min at 37° C. to obtain cell suspension. Following addition of 0.1% type-I-S trypsin inhibitor and 0.05% DNase I, the cell suspension was centrifuged at 500×g for 30 sec. The resulting pellet was triturated, centrifuged again at 500×g for 5 min and resuspended in the minimal essential medium (MEM) supplemented with heat-inactivated 10% fetal bovine serum (FBS), 0.5 mM glutamine, streptomycin (50 μg/ml) and penicillin (50 U/ml). The cell suspension was then filtered through a 70-μm mesh, and the cells were counted using hematocytometer (Hausser Scientific, Horsham, Pa.). The cells were seeded on poly-L-lysine coated 12-well plates. For biochemical analysis 5×10^5 cells were seeded directly on the bottom of each well whereas for immunohistochemistry a removable, poly-L-lysine coated round coverslip was placed on the bottom of the well and the number of seeded cells was reduced to 1×10^5 per well. The neurons were allowed to adhere to the surface for four hours and then the medium was replaced with the serum-free Neurobasal medium containing 2% B27 supplement, 0.5 mM glutamine, streptomycin (50 μg/ml) and penicillin (50 U/ml). At three days in vitro (DIV) 5 μM of cytosine-β-D-arabinoside (Ara C) was added for 48 hr to inhibit division of non-neuronal cells. At 7 DIV one well from each preparation of primary hippocampal neurons was randomly selected to determine the purity of the culture. This was done by calculating the ratio of cells immunostained against microtubule-associated protein 2 (MAP2), which is a neuronal specific marker against all cells stained with 4′,6-diamidino-2-phenylindole (DAPI) nucleic acid stain.
Monomerized Aβ40 peptides were diluted in cell culture media and added to neuronal monocultures for 24 or 72 hr.
Coverslip inserts covered by the primary hippocampal neuro^ns were immersed three times in PBS at 37° C., and then in 80% ice-cold methanol for 10 min to fix the neurons, and washed again three times in PBS. […] Biotinylated secondary antibodies (1:1,000) followed by Cy3 conjugated streptavidine (1:500) were used to detected binding of primary Abs to their antigens. […] Immunostained neurons were analyzed under 80i Nikon fluorescent microscope (Nikon Corp. Tokyo, Japan). […]
Experiment [2] deals with eAβ1-x in brain interstitial fluid (ISF). In words: In vivo microdialysis of brain interstitial fluid eAβ in AD transgenic mice. More on the design: species or system APPSW/PS1L166P AD transgenic mice. The settings on record: 100 μM compound by reverse microdialysis into hippocampal CA1. As to the method:
Mice were anesthetized with an intraperitoneal injection of Ketamine (50 mg/kg) and Xylazine (10 mg/kg). An MBR-10 guide cannula was stereotactically implanted into the right hippocampus (bregma −3.1 mm, 2.4 mm lateral, 12° angle). Four hours later mice were anesthetized again for the insertion of a BR-4 microdialysis probe with 38 kDa molecular weight cutoff (MWCO) membrane (Cirrito et al., 2008. 2008. Neuron; 58, 42-51) which was introduced through the implanted guide cannula. The probe was positioned so that the microdialysis membrane was almost entirely embedded in the strata radiatum and lacunosum-moleculare of the CA1 hippocampal sector (FIG. 8A). […]
eAβ level in the ISF dialyzate was determined using sandwich ELISA specific for human Aβ1-x. […] Absorbance was read on the Epoch Microplate Spectrophotometer (BioTek Instruments, Inc. Winooski, Vt.). Following background subtraction, absorbance values from serially diluted synthetic Aβ samples were used to generate a standard curve in GraphPad Prism v5.02 (GraphPad Software, Inc., San Diego) using a non-linear curve-fitting algorithm. eAβ concentration in dialysate samples was determined by comparing their absorbance values against the standard curve. […]

Setting [3] is: 18 DIV neurons, 10 μM Aβ40 plus 5 μM compound, 72 hr.

Non-standard residues stand in square brackets, D forms with d. Residues, ends and D or L forms follow the SMILES beside them. Sar = CNCC(=O)O

T1 sequence (P05067 672-711): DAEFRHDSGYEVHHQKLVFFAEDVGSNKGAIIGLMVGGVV

In the case of `CC(C)CC(NC(=O)C(CCCCN)NC(=O)CN)C(=O)NC(C(=O)NC(Cc1ccccc1)C(=O)N(C)CC(=O)NC(C)C(N)=O)C(C)C` (stereo not drawn) [GKLVFNmgA] (H-GKLVF[Sar]A-NH2; configuration not given here), at Aβ1-40, the “reduction of the amount of Aβ oligomers (densitometric analysis)” value was 61.3%. In experiment [1] (setting [3]), the “NR1 NMDA receptor subunit positive densities, % of the control” value was 83 % of the control; the “PSD-95 positive densities, % of the control” value is on record as 82.3 % of the control; the “synaptophysin positive densities, % of the control” value is 84.5 % of the control. Besides, the “effect of compound alone on the expression of NR1, synaptophysin and PSD-95” value in experiment [1] (neurons treated with compound alone, no Aβ) is recorded as “no significant effect”. Further, the “hour after the infusion onset from which the increase in eAβ was observed” value in experiment [2] is “seventh”.
